Patent US7968725B2, “Pyridinyl modulators of γ-secretase” (Janssen Pharmaceutica N.V., priority 2008, dated 2011)

target: T1, γ-secretase (Homo sapiens, UniProt P49768); experiment: Screening for γ-secretase-modulating activity in SKNBE2 cells carrying the APP 695-wild type (assay per Citron et al 1997); format: cell-based; conditions: @ 1 uM; SKNBE2 cells carrying APP 695-wild type
T1 construct: endogenous in cells; host or cells: SKNBE2 cells carrying APP 695 wild type
Procedure: Screening of the Compounds of the Invention for γ-Secretase-Modulating Activity
Screening was carried out using SKNBE2 cells carrying the APP 695-wild type, grown in DMEM/NUT-mix F12 (HAM) provided by Gibco (cat no. 31330-38) containing 5% Serum/Fe supplemented with 1% non-essential amino acids.
Cells were grown to near confluency.
The screening was performed using the assay as described in Citron et al (1997) Nature Medicine 3: 67.

Row | Structure (SMILES) | inhibition at 1 µM [%]
1 | C=C(C)CC(C(=O)O)c1cc(-c2ccc(C(F)(F)F)cc2)nc(-c2cncc3ccccc23)c1 (stereo not shown) [Example 18, 2-[2-Isoquinolin-4-yl-6-(4-trifluoromethyl-phenyl)-pyridin-4-yl]-4-methyl-pent-4-enoic acid] | 14
2 | CC(C)CC(C(=O)O)c1cc(-c2ccc(C(F)(F)F)cc2)nc(-c2ccc3ccccc3c2)c1 (stereo not shown) [Example 14, 4-Methyl-2-[2-naphthalen-2-yl-6-(4-trifluoromethyl-phenyl)-pyridin-4-yl]-pentanoic acid] | 34
3 | C=C(C)CC(C(=O)O)c1cc(-c2ccc(C(F)(F)F)cc2)nc(-c2ccc3ccccc3c2)c1 (stereo not shown) [Example 15, 4-Methyl-2-[2-naphthalen-2-yl-6-(4-trifluoromethyl-phenyl)-pyridin-4-yl]-pent-4-enoic acid] | 19
4 | CC(C)COc1cccc(-c2cc(C(CC(C)C)C(=O)O)cc(-c3ccc(C(F)(F)F)cc3)n2)c1 (stereo not shown) [Example 36, 2-[2-(3-Isobutoxy-phenyl)-6-(4-trifluoromethyl-phenyl)-pyridin-4-yl]-4-methyl-pentanoic acid] | 41
5 | C=C(C)CC(C(=O)O)c1cc(-c2ccc(C(F)(F)F)cc2)nc(-c2ccc(F)cc2F)c1 (stereo not shown) [Example 23, 2-[2-(2,4-Difluoro-phenyl)-6-(4-trifluoromethyl-phenyl)-pyridin-4-yl]-4-methyl-pent-4-enoic acid] | 0
6 | CC(C)CC(C(=O)O)c1cc(-c2ccc(C(F)(F)F)cc2)nc(-c2cncc3ccccc23)c1 (stereo not shown) [Example 19, 2-[2-Isoquinolin-4-yl-6-(4-trifluoromethyl-phenyl)-pyridin-4-yl]-4-methyl-pentanoic acid] | 14
7 | Cc1ccc(-c2cc(C(CC(C)C)C(=O)O)cc(-c3ccc(C(F)(F)F)cc3)n2)cc1 (stereo not shown) [Example 11, 4-Methyl-2-[2-p-tolyl-6-(4-trifluoromethyl-phenyl)-pyridin-4-yl]-pentanoic acid] | 0
8 | C=C(C)CC(C(=O)O)c1cc(-c2ccc(C(F)(F)F)cc2)nc(-c2cc(F)ccc2F)c1 (stereo not shown) [Example 24, 2-[2-(2,5-Difluoro-phenyl)-6-(4-trifluoromethyl-phenyl)-pyridin-4-yl]-4-methyl-pent-4-enoic acid] | 22
9 | CC(C)CC(C(=O)O)c1cc(-c2ccc(F)cc2)nc(-c2ccc(C(F)(F)F)cc2)c1 (stereo not shown) [Example 2, 2-[2-(4-Fluoro-phenyl)-6-(4-trifluoromethyl-phenyl)-pyridin-4-yl]-4-methyl-pentanoic acid] | 28
10 | CC(C)CC(C(=O)O)c1cc(-c2ccc(C(F)(F)F)cc2)nc(-c2cc(F)ccc2F)c1 (stereo not shown) [Example 25, 2-[2-(2,5-Difluoro-phenyl)-6-(4-trifluoromethyl-phenyl)-pyridin-4-yl]-4-methyl-pentanoic acid] | 19
11 | C=C(C)CC(C(=O)O)c1cc(-c2ccc(C(F)(F)F)cc2)nc(-c2ccc(C(F)(F)F)cc2C(F)(F)F)c1 (stereo not shown) [Example 16, 2-[2-(2,4-Bis-trifluoromethyl-phenyl)-6-(4-trifluoromethyl-phenyl)-pyridin-4-yl]-4-methyl-pent-4-enoic acid] | 23

The next lines start with the values.

Row | inhibition at 1 µM [%] | Structure (SMILES)
12 | 8 | CC(C)CC(C(=O)O)c1cc(-c2ccccc2)nc(-c2ccc(C(F)(F)F)cc2)c1 (stereo not shown) [Example 38, 4-Methyl-2-[2-phenyl-6-(4-trifluoromethyl-phenyl)-pyridin-4-yl]-pentanoic acid]
13 | 5 | C=C(C)CC(C(=O)O)c1cc(-c2ccc(C(F)(F)F)cc2)nc(-c2c(F)cccc2F)c1 (stereo not shown) [Example 27, 2-[2-(2,6-Difluoro-phenyl)-6-(4-trifluoromethyl-phenyl)-pyridin-4-yl]-4-methyl-pent-4-enoic acid]
14 | 0 | CC(C)CC(C(=O)O)c1cc(-c2ccc(C(F)(F)F)cc2)nc(-c2ccc(C(F)(F)F)nc2)c1 (stereo not shown) [Example 30, 4-Methyl-2-[6′-trifluoromethyl-6-(4-trifluoromethyl-phenyl)-[2,3′]bipyridinyl-4-yl]-pentanoic acid]
15 | 22 | CC(C)CCN(c1ccc(C(C)(C)C)cc1)c1cc(C(CC(C)C)C(=O)O)cc(-c2ccc(C(F)(F)F)cc2)n1 (stereo not shown) [Example 46, 2-[2-[(4-tert-Butyl-phenyl)-(3-methyl-butyl)-amino]-6-(4-trifluoromethyl-phenyl)-pyridin-4-yl]-4-methyl-pentanoic acid]
16 | 16 | C=C(C)CC(C(=O)O)c1cc(-c2ccc(C(F)(F)F)cc2)nc(-c2cccc(-c3ccccc3)c2)c1 (stereo not shown) [Example 34, 2-[2-Biphenyl-3-yl-6-(4-trifluoromethyl-phenyl)-pyridin-4-yl]-4-methyl-pent-4-enoic acid]
17 | 59 | C=C(C)CC(C(=O)O)c1cc(-c2ccc(C(F)(F)F)cc2)nc(-c2ccc(C(F)(F)F)nc2)c1 (stereo not shown) [Example 31, 4-Methyl-2-[6′-trifluoromethyl-6-(4-trifluoromethyl-phenyl)-[2,3′]bipyridinyl-4-yl]-pent-4-enoic acid]
18 | 20 | CC(C)CC(C(=O)O)c1cc(-c2ccc(C(F)(F)F)cc2)nc(-c2ccc3c(c2)OCO3)c1 (stereo not shown) [Example 33, 2-[2-Benzo[1,3]dioxol-5-yl-6-(4-trifluoromethyl-phenyl)-pyridin-4-yl]-4-methyl-pentanoic acid]
19 | 56 | O=C(O)Cc1cc(-c2ccc(C(F)(F)F)cc2)nc(N(CCC2CCCCC2)c2ccc(C(F)(F)F)cc2)c1 [Example 43, [2-[(2-Cyclohexyl-ethyl)-(4-trifluoromethyl-phenyl)-amino]-6-(4-trifluoromethyl-phenyl)-pyridin-4-yl]-acetic acid]

same assay, conditions: SKNBE2 cells carrying APP 695-wild type

Row | Structure (SMILES) | EC50 [nM]
20 | CC(C)CC(C(=O)O)c1cc(-c2ccc(C(C)C)cc2)nc(-c2ccc(C(F)(F)F)cc2)c1 (stereo not shown) [Example 9, 2-[2-(4-Isopropyl-phenyl)-6-(4-trifluoromethyl-phenyl)-pyridin-4-yl]-4-methyl-pentanoic acid] | 730
21 | CC(C)CC(C(=O)O)c1cc(-c2ccc(C(F)(F)F)cc2)nc(-c2cnc3ccccc3c2)c1 (stereo not shown) [Example 7, 4-Methyl-2-[2-quinolin-3-yl-6-(4-trifluoromethyl-phenyl)-pyridin-4-yl]-pentanoic acid] | 670
22 | CC(C)CC(C(=O)O)c1cc(-c2ccc(OC(F)(F)F)cc2)nc(-c2ccc(C(F)(F)F)cc2)c1 (stereo not shown) [Example 3, 4-Methyl-2-[2-(4-trifluoromethoxy-phenyl)-6-(4-trifluoromethyl-phenyl)-pyridin-4-yl]-pentanoic acid] | 380

More lines, now with the values ahead:

Row | EC50 [nM] | Structure (SMILES)
23 | 340 | CC(C)CC(C(=O)O)c1cc(-c2ccc(C(F)(F)F)cc2)nc(N(CC(C)C)c2ccc(C(F)(F)F)cc2)c1 (stereo not shown) [Example 40, 2-[2-[Isobutyl-(4-trifluoromethyl-phenyl)-amino]-6-(4-trifluoromethyl-phenyl)-pyridin-4-yl]-4-methyl-pentanoic acid]
24 | 640 | CC(C)CC(C(=O)O)c1cc(-c2ccc(C(F)(F)F)cc2)nc(N(CCC2CCCCC2)c2ccc(C(F)(F)F)cc2)c1 (stereo not shown) [Example 44, 2-[2-[(2-Cyclohexyl-ethyl)-(4-trifluoromethyl-phenyl)-amino]-6-(4-trifluoromethyl-phenyl)-pyridin-4-yl]-4-methyl-pentanoic acid]
25 | 300 | CC(C)CCN(c1ccc(C(F)(F)F)cc1)c1cc(C(CC(C)C)C(=O)O)cc(-c2ccc(C(F)(F)F)cc2)n1 (stereo not shown) [Example 41, 4-Methyl-2-[2-[(3-methyl-butyl)-(4-trifluoromethyl-phenyl)-amino]-6-(4-trifluoromethyl-phenyl)-pyridin-4-yl]-pentanoic acid]
